Source: ChEMBL document CHEMBL1201862, “PubChem BioAssay data set” (2004)
Active and inactive are the calls of the source.

Columns and labels:
[1] = target: T1, Bcl-2-related protein A1 (Mus musculus, UniProt Q07440); assay: Bfl-1 inhibitors blocking BH3 peptide binding, confirmation, biochemical, TR-FRET, mouse Bfl-1 (AID 621);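 also: TR-FRET binding of GST-Bfl-1 to FITC-labelled Bid peptide via terbium antibody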
T1 sequence (Q07440 whole entry): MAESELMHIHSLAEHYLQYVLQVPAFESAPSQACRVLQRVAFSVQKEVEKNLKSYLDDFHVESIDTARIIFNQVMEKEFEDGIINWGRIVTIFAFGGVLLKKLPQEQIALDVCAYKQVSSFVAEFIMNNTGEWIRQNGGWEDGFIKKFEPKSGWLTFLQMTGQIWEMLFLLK

[2] = target: T1, Bcl-2-related protein A1; assay: Bfl-1 binding inhibitors, SAR follow-up, biochemical, fluorescence polarization (AID 1070)
[3] = target: T2, Aryl hydrocarbon receptor (Homo sapiens, UniProt P35869); assay: Luminescence-based cell-based high throughput dose response assay for activators of the Aryl Hydrocarbon Receptor (AHR). [Related pubchem assays: 2796 (Primary screen (AHR activators in singlicate)), 2845 (Confirmation screen (AHR activators in triplicate)), 434939 (Counterscreen (PXR activators in triplicate)), 2804 (Summary (AHR activators))]; type: ADME
T2 sequence (P35869 whole entry): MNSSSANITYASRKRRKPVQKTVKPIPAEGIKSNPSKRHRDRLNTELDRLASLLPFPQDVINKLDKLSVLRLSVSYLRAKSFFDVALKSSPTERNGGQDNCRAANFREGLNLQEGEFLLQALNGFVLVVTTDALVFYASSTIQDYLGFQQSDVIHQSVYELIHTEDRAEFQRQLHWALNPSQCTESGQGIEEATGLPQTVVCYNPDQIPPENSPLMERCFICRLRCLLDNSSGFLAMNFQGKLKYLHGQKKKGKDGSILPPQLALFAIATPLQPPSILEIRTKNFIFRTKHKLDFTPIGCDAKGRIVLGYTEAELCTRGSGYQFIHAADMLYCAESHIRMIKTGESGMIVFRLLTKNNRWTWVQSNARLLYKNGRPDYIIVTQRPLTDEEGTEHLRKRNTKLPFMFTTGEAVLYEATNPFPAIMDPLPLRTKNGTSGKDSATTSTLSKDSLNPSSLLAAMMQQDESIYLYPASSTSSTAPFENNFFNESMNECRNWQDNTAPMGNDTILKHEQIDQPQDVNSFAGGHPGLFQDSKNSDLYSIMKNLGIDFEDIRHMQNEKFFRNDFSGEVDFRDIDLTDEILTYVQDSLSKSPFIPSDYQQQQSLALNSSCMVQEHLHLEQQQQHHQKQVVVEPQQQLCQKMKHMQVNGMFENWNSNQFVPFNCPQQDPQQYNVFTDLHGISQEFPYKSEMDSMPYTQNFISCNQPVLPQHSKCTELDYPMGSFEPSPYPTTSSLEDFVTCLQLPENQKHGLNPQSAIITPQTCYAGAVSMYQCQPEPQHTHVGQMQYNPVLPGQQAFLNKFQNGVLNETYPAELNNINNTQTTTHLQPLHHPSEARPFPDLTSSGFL

[4] = target: Large T antigen (Simian virus 40, UniProt P03070); type: functional, Betapolyomavirus macacae;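 also: Confirmatory-stage PubChem screen for compounds that inhibit SV40 T antigen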
[5] = target: Ephrin type-A receptor 4 (Mus musculus, UniProt Q03137); assay: inhibitors of EphA4 binding to KYL peptide, primary screen, biochemical, colorimetric, mouse EphA4 (AID 689); type: functional
[6] = target: Glucose-6-phosphate 1-dehydrogenase (Homo sapiens, UniProt P11413); assay: human G6PD enzyme inhibitors, dose response, selectivity assay for P. falciparum G6PD inhibitor project, biochemical, fluorescence (AID 504792); type: functional
[7] = system: Streptococcus sp. 'group A'; assay: growth inhibition of control SK(-) GAS strain, dose response, counter-screen for streptokinase expression inhibitor project, luminescence, kanamycin, BacTiterGlo, confirmation (AID 1900); type: functional, organism-based
[8] = cells; type: functional, cell-based
[9] = inhibitors of intracellular T. cruzi replication, confirmation, NIH3T3 host cells, beta-gal luminescence (AID 2044); type: functional, cell-based;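 also: intracellular parasites grown in NIH/3T3 mouse fibroblasts as host cells; luminescent beta-galactosidase reporter signal from transgenic T. cruzi replicating inside host cells; inhibitors lower the luminescence signal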
[10] = cells; type: functional, cell-based; remark: listed apart in the source
[11] = target: Voltage-gated inwardly rectifying potassium channel KCNH2 (Homo sapiens, UniProt Q12809); assay: hERG protection from proarrhythmic block, potency, dose response, cell-based, thallium flux (AID 2121); type: ADME
[12] = cytotoxicity toward NIH3T3 fibroblasts, dose response, counter-screen, cell-based, ATP luminescence, mouse fibroblasts (AID 2010); type: functional;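 also: cells exposed to compound for about 90 hours before reading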
[13] = system: Streptococcus; assay: Group A Streptococcus viability loss, dose response, counter-screen for streptokinase expression inhibitor project, luminescence, BacTiterGlo (AID 1915); type: functional, organism-based;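 also: potency for reduction of bacterial viability or growth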
[14] = system: INS1; assay: beta cell apoptosis inhibitors, cytokine rescue, dose response, luminescence, retest (AID 449756); type: functional, cell-based; settings: Rattus norvegicus;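 also: cell death triggered by IL-1 beta plus TNF-alpha plus IFN-gamma mixture; protective hits raise ATP signal compared with cytokine alone wells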
[15] = target: T3, Leucine aminopeptidase (Plasmodium falciparum 3D7, UniProt Q8IL11); assay: P. falciparum M17LAP inhibitors, primary screen, biochemical, fluorogenic H-Leu-NHMec substrate, 1536-well (AID 1619); type: functional
T3 sequence (Q8IL11 whole entry): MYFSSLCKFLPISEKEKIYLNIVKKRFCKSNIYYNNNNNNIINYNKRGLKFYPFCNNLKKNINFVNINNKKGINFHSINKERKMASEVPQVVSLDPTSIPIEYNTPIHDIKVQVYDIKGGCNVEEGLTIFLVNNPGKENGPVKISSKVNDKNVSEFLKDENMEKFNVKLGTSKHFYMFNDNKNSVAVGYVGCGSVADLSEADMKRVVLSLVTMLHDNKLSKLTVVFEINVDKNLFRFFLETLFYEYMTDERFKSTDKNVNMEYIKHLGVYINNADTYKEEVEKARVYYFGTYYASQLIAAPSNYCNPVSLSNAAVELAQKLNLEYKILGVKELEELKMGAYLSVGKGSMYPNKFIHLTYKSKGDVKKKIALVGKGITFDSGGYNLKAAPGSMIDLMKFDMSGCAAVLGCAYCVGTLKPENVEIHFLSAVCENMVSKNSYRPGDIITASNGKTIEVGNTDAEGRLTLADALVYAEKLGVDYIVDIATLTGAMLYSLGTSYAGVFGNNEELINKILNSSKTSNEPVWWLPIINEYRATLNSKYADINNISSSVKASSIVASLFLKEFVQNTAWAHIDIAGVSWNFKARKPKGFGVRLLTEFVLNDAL

[16] = target: T4, Aspartyl aminopeptidase (Plasmodium falciparum 3D7, UniProt Q8I2J3); assay: Counterscreen for inhibitors of M1 and M17 aminopeptidases: QFRET-based biochemical high throughput dose response assay for inhibitors of the Plasmodium falciparum M18 Aspartyl Aminopeptidase (PFM18AAP). [Related PubChem assays: 1619 (Screening assay (M17LAP inhibitors).), 1445 (Screening assay (M1AAP inhibitors).)]
T4 sequence (Q8I2J3 whole entry): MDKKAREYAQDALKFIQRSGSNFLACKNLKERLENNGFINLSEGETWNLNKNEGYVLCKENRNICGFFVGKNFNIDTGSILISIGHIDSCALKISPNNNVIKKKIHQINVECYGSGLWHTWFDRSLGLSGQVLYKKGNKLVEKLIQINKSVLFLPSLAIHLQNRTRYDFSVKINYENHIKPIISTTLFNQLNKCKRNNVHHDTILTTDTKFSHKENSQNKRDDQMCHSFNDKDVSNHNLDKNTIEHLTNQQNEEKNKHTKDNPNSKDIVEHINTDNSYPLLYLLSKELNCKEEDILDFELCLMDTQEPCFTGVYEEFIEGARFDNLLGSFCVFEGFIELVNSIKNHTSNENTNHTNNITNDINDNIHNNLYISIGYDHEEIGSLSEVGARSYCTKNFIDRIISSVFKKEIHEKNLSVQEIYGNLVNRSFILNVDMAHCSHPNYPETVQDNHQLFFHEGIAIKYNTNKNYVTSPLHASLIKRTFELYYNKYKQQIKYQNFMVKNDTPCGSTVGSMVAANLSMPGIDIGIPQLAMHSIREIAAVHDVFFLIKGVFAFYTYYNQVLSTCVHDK

[17] = target: Procathepsin L (Homo sapiens, UniProt P07711); assay: cathepsin L inhibitors, dose response, counter-screen for M1/M17 aminopeptidase inhibitor project, biochemical, QFRET, 1536-well (AID 2214)
[18] = target: T1, Bcl-2-related protein A1; assay: Bfl-1 inhibitors, primary screen, biochemical, fluorescence polarization, FITC-Bid, mouse (AID 432)
[19] = target: Galanin receptor type 2 (Homo sapiens, UniProt O43603); assay: Dose Response cell-based high-throughput screening assay to identify antagonists of galanin receptor 2 (GALR2). [Related pubchem assays: 828, 866 ]; type: functional
[20] = target: Genome polyprotein (Hepatitis C virus, UniProt Q2Q167); assay: HCV core protein dimerization inhibitors, dose response, biochemical, TR-FRET (AID 2159); parameters: species or system Hepacivirus hominis;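 also: blocks dimerization of HCV core protein measured by TR-FRET between tagged core106 pairs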
[21] = target: T5, Estrogen receptor (Homo sapiens, UniProt P03372);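 also: potency for inhibiting coactivator peptide recruitment to the receptor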
T5 sequence (P03372 whole entry): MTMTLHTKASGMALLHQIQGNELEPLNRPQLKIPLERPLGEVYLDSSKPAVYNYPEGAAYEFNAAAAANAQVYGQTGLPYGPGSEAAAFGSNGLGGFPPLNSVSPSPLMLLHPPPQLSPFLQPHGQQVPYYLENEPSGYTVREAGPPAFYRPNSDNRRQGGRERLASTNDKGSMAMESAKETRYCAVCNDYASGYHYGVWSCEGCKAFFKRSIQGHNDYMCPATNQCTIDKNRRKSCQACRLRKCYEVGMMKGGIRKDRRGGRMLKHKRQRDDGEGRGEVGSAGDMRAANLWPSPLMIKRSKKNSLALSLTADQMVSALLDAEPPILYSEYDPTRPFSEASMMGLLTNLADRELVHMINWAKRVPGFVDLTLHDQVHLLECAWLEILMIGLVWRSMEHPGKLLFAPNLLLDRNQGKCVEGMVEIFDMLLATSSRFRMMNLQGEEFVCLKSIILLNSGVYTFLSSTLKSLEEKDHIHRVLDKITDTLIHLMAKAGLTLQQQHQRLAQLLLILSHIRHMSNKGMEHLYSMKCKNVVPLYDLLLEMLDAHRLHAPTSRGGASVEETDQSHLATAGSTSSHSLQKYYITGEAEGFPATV

[22] = target: Induced myeloid leukemia cell differentiation protein Mcl-1 (Homo sapiens, UniProt Q07820); type: functional
[23] = target: Peroxisome proliferator-activated receptor gamma/Nuclear receptor corepressor 2 (Homo sapiens, UniProt P37231+Q9Y618); assay: Counterscreen for NR2E3 inverse agonists: TR-FRET-based biochemical high throughput dose response assay to identify inverse agonists of the interaction between peroxisome proliferator-activated receptor gamma (PPARg) and nuclear receptor co-repressor 2 (NCOR2).; type: functional
[24] = target: Photoreceptor-specific nuclear receptor (Homo sapiens, UniProt Q9Y5X4); assay: NR2E3 inverse agonists, dose response, biochemical, TR-FRET (AID 463256); type: functional
[25] = M. tuberculosis growth inhibition, HTS (AID 449762); type: functional
[26] = target: FAD-linked sulfhydryl oxidase ALR (Homo sapiens, UniProt P55789); assay: inhibitors of human ALR sulfhydryl oxidase, dose response, biochemical, H2O2 detection, luminescence, cherry-pick (AID 493248)
[27] = target: Cytochrome P450 2C19 (Homo sapiens, UniProt P33261); assay: qHTS Assay for Inhibitors and Substrates of Cytochrome P450 2C19. [Related pubchem assays: 410 ]; type: ADME; settings: read-out: Potency
[28] = target: Luciferin 4-monooxygenase (Photinus pyralis, UniProt P08659); assay: firefly luciferase enzyme inhibitors, dose response, biochemical, luminescence (AID 1891)
[29] = Luminescence Cell-Based Dose Confirmation HTS to Identify Inhibitors of Platelet Dense Granule Release. [Related pubchem assays: 1663 (Primary HTS), 1678 (Summary of Project)]; type: functional
[30] = Fluorescence Cell-Based Dose Response to Identify Inhibitors of Thrombin Receptor-Activating Peptide SFLLRN-Mediated P-Selectin Induction on Platelets. [Related pubchem assays: 1663 (Primary HTS), 1889 (retest at dose ), 1891 (counterscreen), 1678 (Project Summary)]; type: functional

Chain of Ephrin type-A receptor 4 (Q03137 whole entry): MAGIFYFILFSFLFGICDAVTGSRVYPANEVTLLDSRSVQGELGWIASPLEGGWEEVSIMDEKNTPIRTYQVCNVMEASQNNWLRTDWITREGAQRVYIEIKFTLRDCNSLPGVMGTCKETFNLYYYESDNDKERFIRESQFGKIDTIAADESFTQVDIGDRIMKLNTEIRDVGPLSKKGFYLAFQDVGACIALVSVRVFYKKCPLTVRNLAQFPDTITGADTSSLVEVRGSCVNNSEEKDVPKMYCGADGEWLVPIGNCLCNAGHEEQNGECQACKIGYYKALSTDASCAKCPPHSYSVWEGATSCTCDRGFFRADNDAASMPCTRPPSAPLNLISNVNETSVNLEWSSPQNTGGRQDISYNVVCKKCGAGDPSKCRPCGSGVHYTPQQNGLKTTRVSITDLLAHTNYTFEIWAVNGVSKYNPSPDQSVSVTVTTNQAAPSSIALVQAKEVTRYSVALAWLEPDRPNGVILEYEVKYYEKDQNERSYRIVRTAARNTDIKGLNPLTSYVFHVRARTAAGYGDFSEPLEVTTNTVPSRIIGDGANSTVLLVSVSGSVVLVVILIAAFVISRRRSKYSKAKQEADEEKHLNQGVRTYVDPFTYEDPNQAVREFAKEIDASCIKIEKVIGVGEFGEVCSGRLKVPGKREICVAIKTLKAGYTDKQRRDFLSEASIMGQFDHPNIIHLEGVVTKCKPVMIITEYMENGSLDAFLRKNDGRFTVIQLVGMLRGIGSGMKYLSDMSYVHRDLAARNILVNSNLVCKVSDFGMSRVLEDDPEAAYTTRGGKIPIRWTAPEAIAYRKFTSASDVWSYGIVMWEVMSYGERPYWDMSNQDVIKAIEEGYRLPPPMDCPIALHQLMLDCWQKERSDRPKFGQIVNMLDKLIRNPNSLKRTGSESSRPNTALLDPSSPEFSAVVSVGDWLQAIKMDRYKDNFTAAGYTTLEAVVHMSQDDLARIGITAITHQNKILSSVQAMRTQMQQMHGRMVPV
Chain of Photoreceptor-specific nuclear receptor (Q9Y5X4 whole entry): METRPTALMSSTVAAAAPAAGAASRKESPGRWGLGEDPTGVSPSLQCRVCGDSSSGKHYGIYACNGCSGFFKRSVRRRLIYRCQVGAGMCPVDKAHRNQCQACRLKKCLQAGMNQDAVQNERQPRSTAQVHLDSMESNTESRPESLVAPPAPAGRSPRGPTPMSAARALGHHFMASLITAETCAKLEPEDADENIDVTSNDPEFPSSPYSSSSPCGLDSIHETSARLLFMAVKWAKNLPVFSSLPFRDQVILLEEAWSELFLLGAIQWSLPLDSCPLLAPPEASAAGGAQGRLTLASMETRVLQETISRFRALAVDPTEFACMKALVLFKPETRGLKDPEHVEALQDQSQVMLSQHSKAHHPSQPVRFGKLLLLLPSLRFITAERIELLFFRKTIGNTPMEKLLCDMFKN
Chain of Glucose-6-phosphate 1-dehydrogenase (P11413 whole entry): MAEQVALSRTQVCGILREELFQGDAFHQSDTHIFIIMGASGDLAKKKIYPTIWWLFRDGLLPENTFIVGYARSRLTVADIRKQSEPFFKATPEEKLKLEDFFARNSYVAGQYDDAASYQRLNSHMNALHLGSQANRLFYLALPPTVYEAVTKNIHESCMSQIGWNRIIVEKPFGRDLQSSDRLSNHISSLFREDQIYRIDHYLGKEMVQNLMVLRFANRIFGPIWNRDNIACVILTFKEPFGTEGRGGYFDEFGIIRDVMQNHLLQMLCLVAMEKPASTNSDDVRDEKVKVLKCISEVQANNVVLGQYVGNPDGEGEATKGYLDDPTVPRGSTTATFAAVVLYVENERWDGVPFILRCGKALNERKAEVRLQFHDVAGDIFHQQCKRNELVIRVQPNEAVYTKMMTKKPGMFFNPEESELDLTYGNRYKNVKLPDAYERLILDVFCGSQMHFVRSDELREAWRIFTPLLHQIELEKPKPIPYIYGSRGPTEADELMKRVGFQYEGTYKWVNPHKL
Chain of Induced myeloid leukemia cell differentiation protein Mcl-1 (Q07820 whole entry): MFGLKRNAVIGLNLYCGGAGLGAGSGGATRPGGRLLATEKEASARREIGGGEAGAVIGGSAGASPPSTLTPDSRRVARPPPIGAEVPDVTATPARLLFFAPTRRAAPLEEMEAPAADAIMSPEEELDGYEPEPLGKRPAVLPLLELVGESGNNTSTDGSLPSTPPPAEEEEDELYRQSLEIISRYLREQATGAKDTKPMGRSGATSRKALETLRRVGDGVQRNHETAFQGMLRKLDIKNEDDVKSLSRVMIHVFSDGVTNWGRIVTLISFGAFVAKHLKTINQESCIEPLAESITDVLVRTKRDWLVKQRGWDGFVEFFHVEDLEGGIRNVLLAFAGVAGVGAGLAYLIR
Chain of Luciferin 4-monooxygenase (P08659 whole entry): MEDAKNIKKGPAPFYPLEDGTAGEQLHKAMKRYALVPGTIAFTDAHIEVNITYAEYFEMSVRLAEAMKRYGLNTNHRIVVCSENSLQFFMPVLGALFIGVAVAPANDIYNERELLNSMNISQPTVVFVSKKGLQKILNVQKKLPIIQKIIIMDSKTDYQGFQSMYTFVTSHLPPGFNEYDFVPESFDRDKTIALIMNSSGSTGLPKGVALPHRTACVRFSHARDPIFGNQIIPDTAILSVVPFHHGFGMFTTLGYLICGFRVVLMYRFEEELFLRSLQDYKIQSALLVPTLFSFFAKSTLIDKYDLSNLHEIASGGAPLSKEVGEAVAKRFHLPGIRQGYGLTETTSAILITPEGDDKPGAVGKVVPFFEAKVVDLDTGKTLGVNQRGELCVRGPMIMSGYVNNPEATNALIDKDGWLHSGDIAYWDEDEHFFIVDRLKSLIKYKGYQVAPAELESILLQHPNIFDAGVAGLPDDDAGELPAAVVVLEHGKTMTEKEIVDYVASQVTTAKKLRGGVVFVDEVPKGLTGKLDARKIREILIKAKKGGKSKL
Chain of Procathepsin L (P07711 whole entry): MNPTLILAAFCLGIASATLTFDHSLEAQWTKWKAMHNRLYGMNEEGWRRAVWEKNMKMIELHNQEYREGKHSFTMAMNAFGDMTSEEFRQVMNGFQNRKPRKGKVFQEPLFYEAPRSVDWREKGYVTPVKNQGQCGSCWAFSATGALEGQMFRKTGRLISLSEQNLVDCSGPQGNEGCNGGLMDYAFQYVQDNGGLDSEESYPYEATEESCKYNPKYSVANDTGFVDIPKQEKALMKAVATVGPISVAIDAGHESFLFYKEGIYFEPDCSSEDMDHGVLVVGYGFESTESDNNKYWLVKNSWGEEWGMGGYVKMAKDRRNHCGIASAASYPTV
Chain of Galanin receptor type 2 (O43603 whole entry): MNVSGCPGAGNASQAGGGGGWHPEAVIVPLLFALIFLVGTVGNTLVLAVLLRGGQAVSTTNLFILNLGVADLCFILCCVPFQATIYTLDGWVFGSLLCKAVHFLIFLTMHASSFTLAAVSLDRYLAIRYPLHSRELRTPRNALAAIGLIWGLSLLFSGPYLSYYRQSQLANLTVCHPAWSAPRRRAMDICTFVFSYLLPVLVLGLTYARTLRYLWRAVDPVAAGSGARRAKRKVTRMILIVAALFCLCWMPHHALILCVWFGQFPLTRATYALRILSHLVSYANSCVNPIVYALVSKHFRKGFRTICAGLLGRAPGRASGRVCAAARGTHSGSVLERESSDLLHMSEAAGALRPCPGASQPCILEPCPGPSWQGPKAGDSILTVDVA
Chain of Voltage-gated inwardly rectifying potassium channel KCNH2 (Q12809 whole entry): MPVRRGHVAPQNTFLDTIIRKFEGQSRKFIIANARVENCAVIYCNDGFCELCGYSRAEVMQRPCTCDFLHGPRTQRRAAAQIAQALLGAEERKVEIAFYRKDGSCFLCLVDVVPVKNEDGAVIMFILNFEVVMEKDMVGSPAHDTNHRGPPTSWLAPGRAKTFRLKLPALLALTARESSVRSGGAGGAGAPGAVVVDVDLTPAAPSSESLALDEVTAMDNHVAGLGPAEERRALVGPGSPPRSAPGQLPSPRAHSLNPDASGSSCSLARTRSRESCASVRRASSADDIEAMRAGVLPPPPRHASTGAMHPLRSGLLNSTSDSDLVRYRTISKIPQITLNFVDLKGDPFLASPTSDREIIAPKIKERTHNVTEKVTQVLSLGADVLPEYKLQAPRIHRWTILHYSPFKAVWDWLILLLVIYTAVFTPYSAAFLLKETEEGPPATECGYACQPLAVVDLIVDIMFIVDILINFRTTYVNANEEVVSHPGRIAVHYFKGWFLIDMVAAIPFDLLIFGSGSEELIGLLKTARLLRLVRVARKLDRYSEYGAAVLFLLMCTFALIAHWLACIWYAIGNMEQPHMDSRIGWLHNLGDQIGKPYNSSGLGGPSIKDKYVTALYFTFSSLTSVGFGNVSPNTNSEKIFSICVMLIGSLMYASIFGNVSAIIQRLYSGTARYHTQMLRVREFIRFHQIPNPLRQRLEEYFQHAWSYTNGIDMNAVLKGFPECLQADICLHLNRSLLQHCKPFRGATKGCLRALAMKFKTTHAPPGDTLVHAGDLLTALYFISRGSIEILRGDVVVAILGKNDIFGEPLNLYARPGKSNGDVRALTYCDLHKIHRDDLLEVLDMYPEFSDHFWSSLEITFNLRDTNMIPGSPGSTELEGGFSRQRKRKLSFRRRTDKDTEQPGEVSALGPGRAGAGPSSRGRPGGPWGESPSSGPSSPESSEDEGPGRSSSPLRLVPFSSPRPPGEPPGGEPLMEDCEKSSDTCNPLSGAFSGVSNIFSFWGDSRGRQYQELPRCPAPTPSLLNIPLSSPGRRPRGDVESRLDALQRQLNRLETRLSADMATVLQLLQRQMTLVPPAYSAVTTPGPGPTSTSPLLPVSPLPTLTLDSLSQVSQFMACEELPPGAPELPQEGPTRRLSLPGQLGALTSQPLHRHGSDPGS
Chain of Genome polyprotein (Q2Q167 whole entry): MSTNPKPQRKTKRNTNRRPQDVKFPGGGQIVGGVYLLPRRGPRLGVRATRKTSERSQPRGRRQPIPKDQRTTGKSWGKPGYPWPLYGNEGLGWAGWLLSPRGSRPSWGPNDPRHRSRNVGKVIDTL

## O=C1C(Cl)=C(N2CCN(C/C=C/c3ccccc3)CC2)C(=O)N1c1ccc(Cl)c(Cl)c1
[1]
  IC50: 0.73 µM (active)
[2]
  IC50: 0.594 µM (active)

## CC(=O)c1noc(C)c1C(=O)Nc1nccs1
[3]
  EC50: 6.46 µM (active)

## COc1ccccc1N1CSC2=C(C#N)C(c3ccc(SC)cc3)CC(=O)N2C1 (stereo unspecified)
[4]
  IC50: 28.4 µM (active)
[5]
  IC50: 21.5 µM (active)
[6]
  IC50: > 80 µM (inactive)

## Cc1ccc(N=Nc2ccc(O)c3ncccc23)cc1
[7]
  EC50: 0.165 µM (active)
[8]
  EC50: 9.69 µM (active)
[9]
  EC50: 0.686 µM (active)
[10]
  EC50: > 350 µM (not active)
[11]
  EC50: 2.02 µM (active)
[12]
  EC50: 32.7 µM (active)
[13]
  EC50: 1.56 µM (active)
[14]
  AC50: 1.3 µM (active)

## N#Cc1c(NC(=O)C2C3C=CC(C3)C2C(=O)O)sc2c1CCCCC2 (stereo unspecified)
[15]
  IC50: 1.39 µM (active)
[16]
  IC50: > 73.5 µM (not active)
[17]
  IC50: > 59.6 µM (not active)

## COc1ccc(N2C(=O)C(Cl)=C(Nc3c(C)n(C)n(-c4ccccc4)c3=O)C2=O)cc1
[18]
  IC50: > 100 µM (not active)
[1]
  IC50: > 100 µM (not active)

## CCOC(=O)c1ccc(N2C(=O)CC(N3CCC(O)(c4ccc(Br)cc4)CC3)C2=O)cc1 (stereo unspecified)
[19]
  IC50: > 42 µM (not active)

## Cc1oc(-c2ccc(Cl)cc2)cc1-c1nn2c(-c3ccoc3C)nnc2s1
[20]
  IC50: > 49.8 µM (not active)
[21]
  IC50: 2.77 µM (active)
[22]
  IC50: 3.8 µM (not active)

## O=C(Cc1ccccc1)Nc1ccc2oc(-c3ccncc3)nc2c1
[23]
  IC50: 6.54 µM (active)
[24]
  IC50: 6.31 µM (active)

## O=C1CCC(=O)N1CNc1ccc(Oc2ccccc2)cc1
[25]
  IC50: > 100 µM (active)
[26]
  AC50: 0.166 µM (active)

## COc1ccccc1N1CCN(CCN(C(=O)c2ccc(I)cc2)c2ccccn2)CC1
[27]
  AC50: 10 µM (inconclusive)

## C/C(=N/NC(=O)C1CCCC1)c1ccc(NC(=O)C(F)(F)F)cc1
[28]
  EC50: > 112 µM (not active)
[29]
  EC50: 3.55 µM (active)
[30]
  EC50: < 1 µM (active)
